In US20050187240A1, “Aaptamine and isoaaptamine and structural modifications thereof” (The Arizona Board of Regents, Acting for and on behalf of …, priority 2004, published 2005):

Columns and labels:
Streptococcus pneumoniae = test: Broth microdilution susceptibility assay, Streptococcus pneumoniae; type: cell-based; settings: Table 6
Micrococcus luteus = test: Broth microdilution susceptibility assay, Micrococcus luteus; type: cell-based; settings: Table 6
lung NCI-H460 = test: Cancer cell growth inhibition, lung NCI-H460; type: cell-based, human; settings: Homo sapiens; Table 5; lung NCI-H460; read-out: Cancer Cell Line Results ED50
Description: (§1) Evaluation of demethyloxyaaptamine (3), aaptamine (1), isoaaptamine (2) and hystatin 1 (11) against the Arizona State University Cancer Research Institute's human tumor cell line panel (Table 1) and the NCI 60-cell line human tumor screen were undertaken. (Boyd, M. R., Cancer: Principles and Practices of Oncology Updates; DeVita, et al., Eds; Lippincott: Philadelphia, 1989, Vol. 10, No. 3, pp. 1-12; Boyd, et al., Drug Development Research 1995, 34, 91-109; Boyd, M. R., et al. Cytotoxic Anticancer Drugs: Models and Concepts for Drug Discovery and Development; Valeriote, A., et al., Eds, Kluwer Academic Publishers: Amsterdam, 1992, pp. 11-34.)
(§2) Biology The cancer cell growth inhibitory properties were examined using the murine P388 lymphocytic leukemia cell line and a selection of human cancer cell lines.
(§3) All of the synthetic products were evaluated against a minipanel of human cancer cell lines, the murine P388 lymphocytic leukemia cell line and a selection of microorganisms.

PKC alpha [1] = molecular target: T1, PKC alpha (Homo sapiens, UniProt P17252); test: Inhibition of PKC catalytic activity (peptide substrate phosphorylation); type: biochemical; settings: 30 μM compound; 1 μM phorbol 12-myristate 13-acetate, 100 μg/ml phospholipid; mean±SEM, three experiments; read-out: percent inhibition of PKC catalytic activity
Description: We further evaluated the ability of the derivatives to inhibit PKC catalytic activity. […] Inhibition by 10c was 19.5±7.6% and inhibition by 4, 5, and 9a, b, c was 6% or less (all values are mean±SEM, three experiments). […] In both cases, the inhibition curves were steeper than predicted for a competitive inhibitor, consistent with a complicated mechanism of action (Hill coefficients for 10a and 10b of 1.5±0.1 and 2.0±0.5, respectively).

PKC alpha [2] = molecular target: T1, PKC alpha; test: Inhibition of [3H]phorbol 12,13-dibutyrate binding to PKC alpha; settings: 30 μM compound; read-out: inhibition of [3H]phorbol 12,13-dibutyrate binding to PKC alpha
Experimental: Isoaaptamine (2) and derivatives 4, 5, 7, 8, and 14-18 were evaluated as ligands for PKC, based on the initial report of activity for isoaaptamine (Patil, et al., PCT Int. Appl. WO 95/0584 March 1995). Activity was measured at 30 μM compound using inhibition of [^3H-20]phorbol 12,13-dibutyrate binding to PKC alpha as described previously (Kazanietz, M. G., et al., Molecular Pharmacol., 1993, 44, 298). Assays were carried out with triplicate measurements in either single or triplicate experiments, depending on the compound.
Compounds 4, 5, 9a-c, and 10a-d were evaluated as ligands for PKC, based on the initial report of activity for isoaaptamine. Activity was measured at 30 μM compound using inhibition of [20-^3H]phorbol 12,13-dibutyrate binding to PKC alpha as described previously (Kazanietz, M. G., et al., Characterization of Ligand and Substrate Specificity for the Calcium-Dependent and Calcium-Independent Protein Kinase C Isoenzymes, Molecular Pharmacol. 1993, 44, 298-307). Assays were carried out with triplicate measurement in either single or triplicate experiments, depending on the compound. Inhibition by 9a and 9b was 6.4% and 9.2%, respectively. That by 10a, 10b, and 10d was 11.8%, 12.6%, and 16.0%, respectively. That by other derivatives was 5% or less. We conclude that these compounds show only very weak activity as ligands for PKC.

colon KM 20L2 = test: Cancer cell growth inhibition, colon KM 20L2; type: cell-based, human; settings: Homo sapiens; Table 5; colon KM 20L2; read-out: Cancer Cell Line Results ED50
Description: as §1, §2, §3

[3] = test system: murine P388 lymphocytic leukemia cell line; test: Cancer cell growth inhibition, murine P388 lymphocytic leukemia cell line; type: cell-based; settings: Mus musculus; Table 5; leukemia P388; read-out: Cancer Cell Line Results ED50
Description: as §1, §2, §3

breast MCF-7 = test: Cancer cell growth inhibition, breast MCF-7; type: cell-based, human; settings: Homo sapiens, MCF7; Table 5; breast MCF-7; read-out: Cancer Cell Line Results ED50
Experimental: as §2, §3

Enterococcus faecalis = test: Broth microdilution susceptibility assay, Enterococcus faecalis; type: cell-based; settings: Table 6
CNS SF-268 = test: Cancer cell growth inhibition, CNS SF-268; type: cell-based, human; settings: Homo sapiens; Table 5; CNS SF-268; read-out: Cancer Cell Line Results ED50
Experimental: as §2, §3

Cryptococcus neoformans = test: Broth microdilution susceptibility assay, Cryptococcus neoformans; type: cell-based; settings: Table 6
[4] = test system: Stenotrophomonas maltophilia; test: Broth microdilution susceptibility assay, Stenotrophomonas maltophilia; type: cell-based; settings: Table 6
Escherichia coli = test: Broth microdilution susceptibility assay, Escherichia coli; type: cell-based; settings: Table 6
pancreas BXPC-3 = test: Cancer cell growth inhibition, pancreas BXPC-3; type: cell-based, human; settings: Homo sapiens; Table 5; pancreas BXPC-3; read-out: Cancer Cell Line Results ED50
Experimental: as §2, §3

Enterobacter cloacae = test: Broth microdilution susceptibility assay, Enterobacter cloacae; type: cell-based; settings: Table 6
Neisseria gonorrhoeae = test: Broth microdilution susceptibility assay, Neisseria gonorrhoeae; type: cell-based; settings: Table 6
prostrate DU-145 = test: Cancer cell growth inhibition, prostate DU-145; type: cell-based, human; settings: Homo sapiens, DU-145; Table 5; prostate DRU-145; read-out: Cancer Cell Line Results ED50
Experimental: as §2, §3

Staphylococcus aureus = test: Broth microdilution susceptibility assay, Staphylococcus aureus; type: cell-based; settings: Table 6
Candida albicans = test: Broth microdilution susceptibility assay, Candida albicans; type: cell-based; settings: Table 6

Row | Compound | Range of minimum inhibitory concentration (Streptococcus pneumoniae) | Range of minimum inhibitory concentration (Micrococcus luteus) | IC50 (lung NCI-H460) | inhibition at 30 µM (PKC alpha [1]) | inhibition at 30 µM (PKC alpha [2]) | IC50 (colon KM 20L2) | IC50 [3] | IC50 (breast MCF-7) | Range of minimum inhibitory concentration (Enterococcus faecalis) | IC50 (CNS SF-268) | melting point | Range of minimum inhibitory concentration (Cryptococcus neoformans) | Range of minimum inhibitory concentration [4] | Range of minimum inhibitory concentration (Escherichia coli) | IC50 (pancreas BXPC-3) | Range of minimum inhibitory concentration (Enterobacter cloacae) | Range of minimum inhibitory concentration (Neisseria gonorrhoeae) | IC50 (prostrate DU-145) | Range of minimum inhibitory concentration (Staphylococcus aureus) | Range of minimum inhibitory concentration (Candida albicans)
1 | COc1cc2c3c(ccnc3c1OC)N(Cc1ccccc1)C=C2.Cl [Compound 9a, 4-Benzyl-8,9-dimethoxy-4H-benzo[de][1,6]naphthyridine hydrochloride] | 64 µg/mL | * (no inhibition at 64 μg/mL) | 4.9 µg/mL | ≤ 6% | 6.4% | 2.2 µg/mL | 1.64 µg/mL | > 10 µg/mL | * (no inhibition at 64 μg/mL) | > 10 µg/mL | 137 to 142 °C (dec.) | * (no inhibition at 64 μg/mL) | * (no inhibition at 64 μg/mL) | * (no inhibition at 64 μg/mL) | 4.3 µg/mL | * (no inhibition at 64 μg/mL) | 64 µg/mL | 4.4 µg/mL | * (no inhibition at 64 μg/mL) | * (no inhibition at 64 μg/mL)
2 | COc1ccc(C[n+]2ccc3c4c(cc(OC)c(OC)c42)C=CN3Cc2cc(OC)c(OC)c(OC)c2)cc1O.[Br-] [Compound 10d, 8,9-Dimethoxy-1-(3-hydroxy-4-methoxybenzyl)-4-(3,4,5-trimethoxybenzyl)-4H-benzo[de][1,6]naphthyridin-1-ium bromide] | * (no inhibition at 64 μg/mL) | 8 to 16 µg/mL | > 10 µg/mL | 43.2 ± 10.1% | 16% | > 10 µg/mL | > 10 µg/mL | > 10 µg/mL | * (no inhibition at 64 μg/mL) | > 10 µg/mL |  | * (no inhibition at 64 μg/mL) | * (no inhibition at 64 μg/mL) | * (no inhibition at 64 μg/mL) | > 10 µg/mL | * (no inhibition at 64 μg/mL) | * (no inhibition at 64 μg/mL) | > 10 µg/mL | * (no inhibition at 64 μg/mL) | * (no inhibition at 64 μg/mL)
